Data from the supplement of paper PMC10307832.

What was measured:
Assay in all cases: relative viability (nuclei count vs DMSO), 5 days (fraction); higher = more cells survive
A-427 = tested on: A-427
Outline: (§1)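 Dosing by pin tool came one day after lung cancer cell lines were seeded in 1536-well plates, using either one drug or a fixed anchor-drug dose plus five library-drug doses (not always all listed) in √10 steps. After 5 days, nuclei were counted on 4× images. Relative viability is treated-well nuclei count divided by vehicle-well nuclei count, and values are medians of duplicate plates.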

COR-L23 = tested on: COR-L23
Outline: as §1

ChaGo-K-1 = tested on: ChaGo-K-1
Outline: as §1

EMC-BAC-2 = tested on: EMC-BAC-2
Outline: as §1

HARA = tested on: HARA
Outline: as §1

HCC-15 = tested on: HCC-15
Outline: as §1

HCC-366 = tested on: HCC-366
Outline: as §1

HCC-78 = tested on: HCC-78
Outline: as §1

LC-2-ad = tested on: LC-2-ad
Outline: as §1

LK-2 = tested on: LK-2
Outline: as §1

NCI-H1650 = tested on: NCI-H1650
Outline: as §1

NCI-H1734 = tested on: NCI-H1734
Outline: as §1

NCI-H1793 = tested on: NCI-H1793
Outline: as §1

NCI-H1944 = tested on: NCI-H1944
Outline: as §1

NCI-H1993 = tested on: NCI-H1993
Outline: as §1

NCI-H2009 = tested on: NCI-H2009
Outline: as §1

NCI-H2023 = tested on: NCI-H2023
Outline: as §1

NCI-H2228 = tested on: NCI-H2228
Outline: as §1

NCI-H23 = tested on: NCI-H23
Outline: as §1

NCI-H2405 = tested on: NCI-H2405
Outline: as §1

NCI-H838 = tested on: NCI-H838
Outline: as §1

SK-LU-1 = tested on: SK-LU-1
Outline: as §1

UMC-11 = tested on: UMC-11
Outline: as §1

## CC(C)Oc1cc(Nc2nc(N[C@@H](C)c3ccc(F)cn3)ncc2Cl)n[nH]1 [AZ23] + CC(=O)Nc1cccc(-n2c(=O)n(C3CC3)c(=O)c3c(Nc4ccc(I)cc4F)n(C)c(=O)c(C)c32)c1 [Trametinib] (partner 0.02 µM)
A-427; first compound 0.01 µM
  relative viability: 0.569
A-427; first compound 0.03162 µM
  relative viability: 0.717
A-427; first compound 0.3162 µM
  relative viability: 0.684
COR-L23; first compound 0.01 µM
  relative viability: 0.446
COR-L23; first compound 0.03162 µM
  relative viability: 0.659
COR-L23; first compound 0.3162 µM
  relative viability: 0.612
ChaGo-K-1; first compound 0.01 µM
  relative viability: 0.855
ChaGo-K-1; first compound 0.03162 µM
  relative viability: 0.921
ChaGo-K-1; first compound 0.3162 µM
  relative viability: 0.979
EMC-BAC-2; first compound 0.01 µM
  relative viability: 0.911
EMC-BAC-2; first compound 0.03162 µM
  relative viability: 0.912
EMC-BAC-2; first compound 0.3162 µM
  relative viability: 0.898
HARA; first compound 0.01 µM
  relative viability: 0.666
HARA; first compound 0.03162 µM
  relative viability: 0.886
HARA; first compound 0.3162 µM
  relative viability: 0.399
HCC-15; first compound 0.01 µM
  relative viability: 0.382
HCC-15; first compound 0.03162 µM
  relative viability: 0.413
HCC-15; first compound 0.3162 µM
  relative viability: 0.243
HCC-366; first compound 0.01 µM
  relative viability: 0.334
HCC-366; first compound 0.03162 µM
  relative viability: 0.399
HCC-366; first compound 0.3162 µM
  relative viability: 0.33
HCC-78; first compound 0.01 µM
  relative viability: 0.494
HCC-78; first compound 0.03162 µM
  relative viability: 0.669
HCC-78; first compound 0.3162 µM
  relative viability: 0.418
LC-2-ad; first compound 0.01 µM
  relative viability: 1.09
LC-2-ad; first compound 0.03162 µM
  relative viability: 0.898
LC-2-ad; first compound 0.3162 µM
  relative viability: 0.868
LK-2; first compound 0.01 µM
  relative viability: 0.949
LK-2; first compound 0.03162 µM
  relative viability: 0.916
LK-2; first compound 0.3162 µM
  relative viability: 0.681
NCI-H1650; first compound 0.01 µM
  relative viability: 0.546
NCI-H1650; first compound 0.03162 µM
  relative viability: 0.589
NCI-H1650; first compound 0.3162 µM
  relative viability: 0.659
NCI-H1734; first compound 0.01 µM
  relative viability: 0.733
NCI-H1734; first compound 0.03162 µM
  relative viability: 0.726
NCI-H1734; first compound 0.3162 µM
  relative viability: 0.436
NCI-H1793; first compound 0.01 µM
  relative viability: 0.45
NCI-H1793; first compound 0.03162 µM
  relative viability: 0.407
NCI-H1793; first compound 0.3162 µM
  relative viability: 0.347
NCI-H1944; first compound 0.01 µM
  relative viability: 0.438
NCI-H1944; first compound 0.03162 µM
  relative viability: 0.398
NCI-H1944; first compound 0.3162 µM
  relative viability: 0.386
NCI-H1993; first compound 0.01 µM
  relative viability: 0.551
NCI-H1993; first compound 0.03162 µM
  relative viability: 0.493
NCI-H1993; first compound 0.3162 µM
  relative viability: 0.449
NCI-H2009; first compound 0.01 µM
  relative viability: 0.257
NCI-H2009; first compound 0.03162 µM
  relative viability: 0.243
NCI-H2009; first compound 0.3162 µM
  relative viability: 0.284
NCI-H2023; first compound 0.03162 µM
  relative viability: 0.602
NCI-H2023; first compound 0.3162 µM
  relative viability: 0.48
NCI-H2228; first compound 0.01 µM
  relative viability: 0.523
NCI-H2228; first compound 0.03162 µM
  relative viability: 0.631
NCI-H2228; first compound 0.3162 µM
  relative viability: 0.401
NCI-H23; first compound 0.03162 µM
  relative viability: 0.364
NCI-H23; first compound 0.3162 µM
  relative viability: 0.361
NCI-H2405; first compound 0.01 µM
  relative viability: 0.572
NCI-H2405; first compound 0.03162 µM
  relative viability: 0.673
NCI-H2405; first compound 0.3162 µM
  relative viability: 0.599
NCI-H838; first compound 0.01 µM
  relative viability: 0.615
NCI-H838; first compound 0.03162 µM
  relative viability: 0.561
NCI-H838; first compound 0.3162 µM
  relative viability: 0.456
SK-LU-1; first compound 0.03162 µM
  relative viability: 0.509
SK-LU-1; first compound 0.3162 µM
  relative viability: 0.474
UMC-11; first compound 0.01 µM
  relative viability: 0.591
UMC-11; first compound 0.03162 µM
  relative viability: 0.872
UMC-11; first compound 0.3162 µM
  relative viability: 0.729
